Results on one compound are retold here after patent US20250127905A1, “GLUTARIMIDE COMPOUND AND USE THEREOF” (MEDSHINE DISCOVERY INC., priority 2021, published 2025).

Assay [1] deals with imiquimod-induced psoriasis model. In words: Imiquimod-induced psoriasis model in mice: pathological score, ear thickness, spleen weight. The following applies: Mean±SEM; for Spleen weight: D7; for Increased ear thickness: D7 relative to D0. Format: in vivo, BALB/c mice. How it is done:
It is to evaluate the efficacy of compounds on imiquimod-induced psoriasis model in BALB/c mice.
Animals: BALB/c mice, male, 18 to 20 g; source: Zhejiang Vital River Laboratory Animal Technology Co., Ltd.
(§1) Experimental grouping and administration: After acclimatization, […] male BALB/c mice were randomly divided into 5 groups (n=6 or 9) according to body weight: normal (control, G1) group, vehicle (model, G2) group, test compound low-dose (30 mg/kg, BID, G3) group, test compound medium-dose (100 mg/kg, BID, G4) group, and test compound high-dose (300 mg/kg, BID, G5) group.
(§2) Model induction: the dorsal skin of the experimental animals was shaved (surface area=2×3 cm) before the application of imiquimod. In addition to the normal group, imiquimod cream was topically applied to the shaved back (47 mg) and left ear (15 mg) at 62 mg/mouse per day for 8 consecutive days (from D0 to D7). For administration groups (G2 to G5), the vehicle or test compound was intragastrically administered twice a day from D-1 to D6 and only once on D7. The administration volume was 10 mL/kg in each group. (Note: It is specified that the first application of imiquimod is D0; since it is administered one day earlier, the first administration is D-1).
Clinical score: Clinical disease scores for erythema, scale, and thickness were measured daily according to a grading system, and cumulative scores were calculated.
Ear thickness: The left ear thickness was measured on D0, D3, D5, and D7 for a total of 4 times, and the increased ear thickness on D7 relative to D0 was calculated.
Spleen weight: The spleen weight was measured after the animals were sacrificed on D7.
(§3) Experimental data were expressed as Mean±SEM; data were statistically analyzed using one-way ANOVA in GraphPad Prism software, and p<0.05 was considered a significant difference between the two groups.

For assay [2], the system named is interleukin 17, interleukin 6, and tumor necrosis factor α. In words: Imiquimod-induced psoriasis model in mice: relative levels of skin inflammatory factors (fluorescence quantitative PCR). To be noted: lesion skin D7, Mean±SEM. Format: in vivo, BALB/c mice. How it is done: as §1, §2
Inflammatory factors: The skin was taken from the lesion site after the animals were sacrificed on D7, and the relative levels of interleukin 17, interleukin 6, and tumor necrosis factor α were detected using fluorescence quantitative PCR.
as §3

For the compound `O=C1CCC(c2noc3c(NC(=O)CN4CCN(C[C@H]5CC[C@H](n6cc(NC(=O)c7cnn8ccc(N9C[C@H]%10C[C@@H]9CO%10)nc78)c(C(F)F)n6)CC5)CC4)cccc23)C(=O)N1` (stereo partly drawn) [WX015], in assay [1] (30 mg/kg BID intragastric), the Spleen weight turned out to be 175.78 ± 13.01 mg, the Increased ear thickness was 208 ± 6 µm and the Pathological score is given as 20.2 ± 0.89. Further, in assay [1] (100 mg/kg BID intragastric), the Spleen weight is reported as 153.78 ± 11.67 mg, the Increased ear thickness worked out at 217 ± 5.67 µm and the Pathological score is recorded as 20.5 ± 1.18. In assay [1] (300 mg/kg BID intragastric), this compound had a Spleen weight of 132.78 ± 3.94 mg, an Increased ear thickness of 185 ± 2.68 µm and a Pathological score of 19.0 ± 0.55. Besides, in assay [2] (30 mg/kg BID), the “Interleukin 6 relative level” value was 8.0 ± 3.3, the “Interleukin 17 relative level” value was found to be 102.4 ± 36.9 and the “Tumor necrosis factor α relative level” value is reported as 5.2 ± 0.7. In assay [2] (100 mg/kg BID), the “Interleukin 6 relative level” value is 13.8 ± 2.3, the “Interleukin 17 relative level” value is 113.1 ± 49.4 and the “Tumor necrosis factor α relative level” value is on record as 5.2 ± 0.8. Further, in assay [2] (300 mg/kg BID), the “Interleukin 6 relative level” value turned out to be 4.7 ± 2.0, the “Interleukin 17 relative level” value is on record as 97.3 ± 35.3 and the “Tumor necrosis factor α relative level” value turned out to be 3.7 ± 0.6.
